Measurements taken from patent US8936809B2, “Method for treating prostate diseases based on local delivery of active substances” (Lidds AB, priority 2005, dated 2015).
Where “and” joins values, the source holds several entries; their conditions need not be identical. Identical values can stand only once. Like-named read-outs stand apart in the source and are kept apart here.

Key:
prostate tissue = test: Efficacy and safety of local prostate implant in male beagle dogs: side effects, urinated volume, histopathology (Example 3); type: in vivo, dog
Method: The major purpose of the present animal study was to examine the efficacy and safety of the new local drug delivery system with 2-hydroxyflutamide, a selective antagonist of the androgen receptor (AR) as the active moiety in human prostate tissue during various treatment periods in male dogs. The dog has been selected as the test model because of its proven suitability in this type of study. The study was performed in 12 male beagle dogs from Harlan Winkelmann GmbH, Germany. The sterile controlled release implant was composed of ceramic compounds and 2-hydroxyflutamide. Storage and handling instructions were given. The composition of the formulation of the low and high dose was 250 mg of 2-hydroxyflutamide +2.25 g calcium sulphate […] +5.0 g calcium sulphate hemi-hydrate and it was mixed with solution: 3.5 ml of water solution (with 1% acetic acid and 1% methyl cellulose). The final formulation work was done during sterile conditions by trained personal at the experimental day. […] The animals were fasted for at least 12 hours prior to the insertion procedure on Day 1. The implant drug delivery system was inserted locally into the prostate tissue, via rectum, through sterile needles during rectal ultrasound guidance. Each animal was under anesthesia during the insertion procedure.

dog prostate tissue = test: Macroscopic anti-proliferate effect on dog prostate tissue: volume before, weight after, palpation (Example 1); type: in vivo; parameters: key to Palpation: 0 = no effect; + = mild effect; ++ = intermediate; +++ = strong effect; conditions: for Weight of prostate tissue (after): termination after day 20
Description: After day 20, each dog was terminated with an intravenous dose of a mixture of pentobarbital and potassium. The following organs were surgical removed and frozen: prostate, testis, liver and kidney for the assessment of effect and safety. These organs were carefully examined as a consequence of the local tissue exposure of 2-hydroxy-flutamide and the ceramic-based implant. The macroscopic pharmacological anti-proliferate effect of 2-hydroxy-flutamide was examined as the volume-weight ratio of the dog prostate tissue before and after the local administration of 2-hydroxy-flutamide as a single controlled release pharmaceutical composition.

[1] = Plasma pharmacokinetics after local prostate implant in male beagle dogs (Example 3); type: in vivo, dog; conditions: for F (bioavailability): beagle dog; for F (bioavailability) / bioavailability: approximated with average i.v. clearance of Example 1; for half-life: read-out: t½ (converted); for bioavailability: iv, read-out: F (bioavailability)
Method: The dog has been selected as the test model because of its proven suitability in this type of study. The study was performed in 12 male beagle dogs from Harlan Winkelmann GmbH, Germany.
The sterile controlled release implant was composed of ceramic compounds and 2-hydroxyflutamide. Storage and handling instructions were given. The composition of the formulation of the low and high dose was 250 mg of 2-hydroxyflutamide +2.25 g calcium sulphate di-hydrat +5.0 g calcium sulphate hemi-hydrate and it was mixed with solution: 3.5 ml of water solution (with 1% acetic acid and 1% methyl cellulose).
The final formulation work was done during sterile conditions by trained personal at the experimental day. The amount injected into each lobe of the androgen sensitive bulbourethral gland was about 2.0-3.0 ml for the low dose (250 mg) and 4.0-6.0 ml of the high dose (500 mg).
The animals were fasted for at least 12 hours prior to the insertion procedure on Day 1. The implant drug delivery system was inserted locally into the prostate tissue, via rectum, through sterile needles during rectal ultrasound guidance. Each animal was under anesthesia during the insertion procedure.
Blood samples for pharmacokinetic was collected as follows: On Day 1: Pre-insertion and 6 hours after insertion. Blood samples were sampled in the morning on Days 2, 3, 4, 5, 6 and 7. During the rest of the study blood samples were collected once a week.
Blood samples of approximately 3 ml were drawn from the jugular vein. The blood was sampled into vacutainers containing EDTA as anticoagulant. The blood was placed in ice water until centrifugation (10 min, 1270 G, +4° C.). The plasma was transferred to Nunc cryotubes (Nunc, Denmark) and frozen at −18° C. or below and sent with dry ice to Swedish Veterinary Institute, Uppsala for analysis.
The plasma pharmacokinetic variables were calculated using standard pharmacokinetic methods and are given for both implant doses of 250 mg and 500 mg in Tables 6 and 7. The bioavailability (F) was approximated by using the average value for clearance of 2-hydroyflutamide when it was given by an intravenous dose in the dog study presented in Example 1.

[2] = local prostate implant 250 mg or 500 mg
[3] = beagle dog plasma, local prostate implant 250 mg, individual animals
[4] = beagle dog plasma, local prostate implant 500 mg, individual animals
[5] = male, beagle, dog, plasma, 250 mg, beagle dogs, local prostate implant 250 mg, Mean of four animals
[6] = male, beagle, dog, plasma, 500 mg, beagle dogs, local prostate implant 500 mg, Mean of four animals

Tmax [1, 3]: 48 h | t½ [1, 3]: 34 h and 39 h and 26 h | Cmax [1, 4]: 0.202 µg/mL and 0.133 µg/mL | Tmax [1, 4]: 48 h | t½ [1, 4]: 57 h and 59 h and 34 h and 28 h | F (bioavailability) ([1]; local prostate implant 250 mg, individual animals): 74% and 46% and 50% and 112% | F (bioavailability) ([1]; local prostate implant 500 mg, individual animals): 86% and 110% and 113% and 98% | half-life ([1]; male, beagle, dog, plasma, 250 mg, beagle dog plasma, local prostate implant 250 mg, individual animals): 32 h | AUC ([1]; male, beagle, dog, plasma, 250 mg, beagle dogs, local prostate implant 250 mg, Mean of four animals, read-out: AUC): 8.33 µg·h/mL | Cmax ([1]; male, beagle, dog, plasma, 250 mg, beagle dogs, local prostate implant 250 mg, Mean of four animals, read-out: Cmax): 0.093 µg/mL | Tmax ([1]; male, beagle, dog, plasma, 250 mg, beagle dogs, local prostate implant 250 mg, Mean of four animals, read-out: tmax): 17 h | half-life [1, 5]: 33 h | AUC ([1]; male, beagle, dog, plasma, 500 mg, beagle dog plasma, local prostate implant 500 mg, individual animals, read-out: AUC): 10.2 µg·h/mL | Cmax ([1]; male, beagle, dog, plasma, 500 mg, beagle dog plasma, local prostate implant 500 mg, individual animals, read-out: Cmax): 0.102 µg/mL | AUC ([1]; male, beagle, dog, plasma, 500 mg, beagle dogs, local prostate implant 500 mg, Mean of four animals, read-out: AUC): 12.1 µg·h/mL | Cmax ([1]; male, beagle, dog, plasma, 500 mg, beagle dogs, local prostate implant 500 mg, Mean of four animals, read-out: Cmax): 0.145 µg/mL | Tmax ([1]; male, beagle, dog, plasma, 500 mg, beagle dogs, local prostate implant 500 mg, Mean of four animals, read-out: tmax): 27 h | half-life [1, 6]: 45 h | bioavailability [1, 5]: 71% | bioavailability [1, 6]: 102%
Compound: CC(C)(O)C(=O)Nc1ccc([N+](=O)[O-])c(C(F)(F)F)c1 [2-hydroxy-flutamide]
diarrhea (prostate tissue; [2]): no diarrhea observed | effect of the treatment on the urinated volume (prostate tissue; [2]): no effect | side-effects (prostate tissue; [2]): no side-effects were observed | microscopic findings of the prostate tissue (histopathology) (prostate tissue; treated groups, local prostate implant): increased incidence of vacuolation and cystic acini | Palpation (dog prostate tissue; dog H2, 60 mg local prostate implant): ++ | Weight of prostate tissue (after) (dog prostate tissue; dog H2, after local administration of 60 mg): 13 g | volume of prostate tissue (before) (dog prostate tissue; dog H2, before local administration of 60 mg): 13.3 cm^3 | Palpation (dog prostate tissue; dog H3, 30 mg local prostate implant): 0 | Weight of prostate tissue (after) (dog prostate tissue; dog H3, after local administration of 30 mg): 17 g | volume of prostate tissue (before) (dog prostate tissue; dog H3, before local administration of 30 mg): 12.4 cm^3 | Palpation (dog prostate tissue; dog H4, 120 mg local prostate implant): +++ | Weight of prostate tissue (after) (dog prostate tissue; dog H4, after local administration of 120 mg): 13 g | volume of prostate tissue (before) (dog prostate tissue; dog H4, before local administration of 120 mg): 11.3 cm^3 | anti-proliferate effect (dog prostate tissue; dogs, local prostate implant, three weeks): clear anti-proliferate effect | macroscopic effect based on volume (before) and weight (after) (dog prostate tissue; two higher doses (60 mg, H2 and 120 mg, H4) in comparison with placebo (H1) and low dose (30 mg, H3)): resulted in a macroscopic effect | AUC [1, 3]: 8.701 µg·h/mL and 5.446 µg·h/mL and 5.921 µg·h/mL and 13.237 µg·h/mL | Cmax [1, 3]: 0.097 µg/mL and 0.058 µg/mL and 0.085 µg/mL and 0.131 µg/mL | AUC [1, 4]: 13.009 µg·h/mL and 13.42 µg·h/mL and 11.631 µg·h/mL
